# From patent publication US12104195B2, “Reelin/VEGF-C production/activation promoter and skin external composition using the same” (Amorepacific Corporation, priority 2022, dated 2024)
# Key:
# reelin = assay: Reelin cytokine analysis (Human reelin ELISA Kit) in human dermal lymphatic endothelial cells; assay type: cell-based; settings: HDLEC, 48 hours, compared with DMSO control group (100%); extract 1-100 μg/ml, compound 100-2000 nmole; FIGS. 3 and 4
# Description: Human dermal lymphatic endothelial cells were cultured in 6 well plates for 24 hours, while treated with DMSO as a control group (reference; 100%), treated with the fermented ginseng extract of the preparation example and the compound represented by Chemical Formula 1-1 (Sigma-Aldrich Co., Ltd.) at each concentration of 1 μg/ml, 10 μg/ml, 20 μg/ml, 50 μg/ml, and 100 μg/ml and at each concentration of 100 nmole, 250 nmole, 500 nmole, 1000 nmole, and 2000 nmole, cultured for 48 hours, and then measured with respect to production and activity of reelin through a reelin cytokine analysis according to a manual by using Human reelin ELISA Kit (Mybiosource, Inc., U.S.A.), and the results are shown in FIGS. 3 and 4.
# VEGF-C = VEGF-C cytokine analysis (VEGFC Human ELISA Kit) in normal human epidermal keratinocytes; assay type: cell-based; settings: NHEK, 48 hours, compared with DMSO control group (100%); extract 1-100 μg/ml, compound 100-2000 nmoles; FIGS. 5 and 6
# Description: Normal human epidermal keratinocytes were cultured in 6 well plates for 24 hours, while treated with DMSO as a control group (reference; 100%), treated with the fermented ginseng extract of the preparation example and the compound represented by Chemical Formula 1-1 (Sigma-Aldrich Co., Ltd.) at each concentration of 1, 10, 20, 50 and 100 μg/ml and at each concentration of 100, 250, 500, 1000, and 2000 nmoles, cultured for 48 hours, and then measured with respect to production and activity of VEGF-C through VEGF-C cytokine analysis by using VEGFC Human ELISA Kit (ThermoFisher Scientific, U.S.A.) according to a manual, and the results are shown in FIGS. 5 and 6.
compound,measurement,setting,value
CC(C)=CCC[C@](C)(O[C@@H]1O[C@H](CO[C@@H]2O[C@H](CO)[C@@H](O)[C@H](O)[C@H]2O)[C@@H](O)[C@H](O)[C@H]1O)[C@H]1CC[C@]2(C)[C@@H]1[C@H](O)C[C@@H]1[C@@]3(C)CC[C@H](O[C@@H]4O[C@H](CO)[C@@H](O)[C@H](O)[C@H]4O)C(C)(C)[C@@H]3CC[C@]12C,production and activity of reelin,reelin,improved production and activity of reelin
same,production and activity of VEGF-C,VEGF-C,more improved the production and activity of VEGF-C
